# According to patent US20260297035A1, “PROTEIN KINASE INHIBITORS AND USES THEREOF” (DELiver Therapeutics, Inc., priority 2023, published 2026):
# pIC50: −log10 of the molar value. Counter-ions that a name gives are not always drawn.
# Legend:
# RET = settings: cited from earlier work
# ABL2 (Arg) = settings: cited from earlier work
# BMX = settings: role: cofactor; peptide substrate Tyr 01; read-out: ATP Km app; cited from earlier work
# RET-V804E = settings: cited from earlier work
# RET-A883F = settings: role: cofactor; peptide substrate Tyr 04; read-out: ATP Km app; cited from earlier work
# EPHB1 = settings: role: cofactor; peptide substrate Tyr 02; read-out: ATP Km app; cited from earlier work
# RET-V804L = settings: role: cofactor; peptide substrate Tyr 02; read-out: ATP Km app; cited from earlier work
# RET-Y791F = settings: role: cofactor; peptide substrate Tyr 02; read-out: ATP Km app; cited from earlier work
# AURKC (Aurora C) = settings: role: cofactor; peptide substrate Ser/Thr 19; read-out: ATP Km app; cited from earlier work
# AURKA (Aurora A) = settings: role: cofactor; peptide substrate Ser/Thr 01; read-out: ATP Km app; cited from earlier work
# RET-S891A = settings: role: cofactor; peptide substrate Tyr 06; read-out: ATP Km app; cited from earlier work
# EPHA5 = settings: cited from earlier work
# ABL1 F317L = settings: cited from earlier work
# BTK = settings: cited from earlier work
# TXK = settings: cited from earlier work
# ABL1 F317I = settings: role: cofactor; peptide substrate Tyr 02; read-out: ATP Km app; cited from earlier work
# EPHB2 = settings: cited from earlier work
# ROS1 = settings: cited from earlier work
# JAK2 [1] = settings: role: cofactor; peptide substrate Tyr 06; read-out: ATP Km app; cited from earlier work
# ABL1(wt) = ABL1(wt) (Homo sapiens, UniProt P00519); settings: cited from earlier work
# AURKB (Aurora B) = settings: role: cofactor; peptide substrate Ser/Thr 01; read-out: ATP Km app; cited from earlier work
# TYK2 = settings: role: cofactor; peptide substrate Tyr 03; read-out: ATP Km app; cited from earlier work
# NTRK3 (TRKC) = settings: role: cofactor; peptide substrate Tyr 01; read-out: ATP Km app; cited from earlier work
# ABL1 E255K = settings: role: cofactor; peptide substrate Tyr 02; read-out: ATP Km app; cited from earlier work
# LCK = settings: cited from earlier work
# SRC-N1 = settings: cited from earlier work
# EPHA8 = settings: role: cofactor; peptide substrate Tyr 02; read-out: ATP Km app; cited from earlier work
# ITK = settings: role: cofactor; peptide substrate Tyr 01; read-out: ATP Km app; cited from earlier work
# ABL1 G250E = settings: role: cofactor; peptide substrate Tyr 02; read-out: ATP Km app; cited from earlier work
# JAK3 = settings: role: cofactor; peptide substrate Tyr 06; read-out: ATP Km app; cited from earlier work
# TNK1 = settings: role: cofactor; peptide substrate Ser/Thr 13; read-out: ATP Km app; cited from earlier work
# SRC = settings: cited from earlier work
# NTRK2 (TRKB) = settings: role: cofactor; peptide substrate Tyr 01; read-out: ATP Km app; cited from earlier work
# NTRK1 (TRKA) = settings: role: cofactor; peptide substrate Tyr 01; read-out: ATP Km app; cited from earlier work
# EPHA2 = settings: role: cofactor; peptide substrate Tyr 01; read-out: ATP Km app; cited from earlier work
# ABL1 Y253F = settings: role: cofactor; peptide substrate Tyr 02; read-out: ATP Km app; cited from earlier work
# JAK1 = settings: role: cofactor; peptide substrate Tyr 06; read-out: ATP Km app; cited from earlier work
# ABL1 T315I = target: T1, ABL1 T315I (Homo sapiens, UniProt P00519, T315I); settings: role: cofactor; peptide substrate Tyr 02; read-out: ATP Km app; cited from earlier work
# T1 construct: The ABL1 variant polypeptides utilized contained the same polypeptide as the “isoahABL1(wt)” polypeptide except that each contained one corresponding amino acid substitution
# PTK2B (FAK2) = settings: cited from earlier work
# EPHA1 = settings: cited from earlier work
# IMR90 fibroblasts, IL-6 = assay: Senomorphic activity: IL-6 reduction (ELISA) in senescent IMR90 fibroblasts; type: cell-based, human; settings: for IL-6 reduction potency compared with pacritinib: compared with control drug pacritinib
# Protocol: Senomorphic activity of compounds were assessed by determining whether the compounds could inhibit the senescence-associated secretory phenotype (SASP) in senescent cells, which is associated with overproduction and secretion of pro-inflammatory factors. Although many of these factors are associated primarily with macrophages and monocytes, they can also be made by a variety of senescent and activated cell types, such as fibroblasts. Specifically, IMR90 fibroblasts are known to overproduce these factors, especially when rendered senescent.
# (§1) In the assay, IMR90 fibroblasts were plated at a density of 3E6 cells in a T175 tissue culture (TC)-treated flask. The flasks were placed into a tissue culture incubator and cells were allowed to adhere to the bottom of the wells for 24 hours. After cell adherence, the TC-treated flasks containing the cells were placed into a MultiRad225 X-ray irradiator, where cells were exposed to 10 grays (Gy) of ionizing […] irradiation. After irradiation, flasks were returned to the tissue culture incubator for 7 days, refreshing the cell media every 3 days.
# (§2) After the 7-day incubation period that allowed full senescence transformation, cells were detached from the TC-treated flasks using 0.25% trypsin-EDTA solution. Cells were then split, and two experiments were conducted simultaneously: (1) verification of senescence induction via β-galactosidase staining (a senescent cell marker) and (2) analysis of senomorphic activity of compounds.
# For verification of senescence induction, 2.5E4 cells were plated in TC-treated 6-well plates. After overnight adherence to the TC-plates, cells were fixed and stained for β-galactosidase accumulation following the manufacturer's standard protocol (e.g., Millipore Sigma, Senescence Cells Histochemical Staining Kit, CS0030-1KT). Brightfield microscopy was used to image the cells and ImageJ software was used to calculate the percentage of senescent cells per well. Non-irradiated IM90 fibroblasts were used as a non-senescent control.
# To test the senomorphic activity of compounds, 1E4 cells were plated in 96-well plates. After overnight adherence to the 96-well plates, compounds were added in half-log dilutions to the wells containing the cells. Compounds that were effective inhibitors of JAK2 and were not effective inhibitors of JAK1 were assayed (JAK2 selective inhibitors). Twenty-four hours after compounds were added, cell culture media was collected and analyzed by various enzyme linked immunosorbent assays (ELISAs) for the expression of SASP-associated cytokines, including IL-6, TGF-beta, and TNF-alpha. The manufacturer's protocol was followed for ELISA analysis (e.g., Abcam, Human IL-6 ELISA kit, ab178013). Cytokine levels were compared to untreated controls and reduction of cytokine production was plotted and calculated using GraphPad Prism analysis software.
# IMR90 fibroblasts = assay: Relative viability (CellTiterGlo) of senescent IMR90 fibroblasts; type: cell-based, human; settings: at IL-6 reducing concentrations
# Protocol: as §1, §2
# (§3) Cells also were measured for relative viability to generate cytotoxicity curves associated with the varying concentrations of compounds. […] LD50 values were measured by normalizing luminescence intensity to the lowest drug concentration. GraphPad Prism was used to plot and calculate LD50 values from the cytotoxic kill curves. Curves were fit to a non-linear regression model, with compound concentration vs. response and variable slope (four parameters).
# [2] = as above; type: cell-based, human; settings: human, senescent imr90 fibroblasts
# Protocol: as §1, §2, §3
# RET-V804M = settings: control inhibitor; Tracer 236 at 5 nM; cited from earlier work
# TNK2 (ACK) = settings: control inhibitor; Tracer 236 at 30 nM; cited from earlier work
# RET-M918T = settings: control inhibitor; Tracer 236 at 10 nM; cited from earlier work
# TEC = settings: control inhibitor; Tracer 178 at 1 nM; cited from earlier work
# DDR2-T654M = settings: control inhibitor; Tracer 178 at 100 nM; cited from earlier work
# JAK2 [3] = settings: cited from earlier work
# [4] = role: cofactor, peptide substrate Tyr 02, read-out: ATP Km app
# [5] = role: cofactor, peptide substrate Tyr 01, read-out: ATP Km app
# [6] = control inhibitor, Tyr 02, ATP 10 μM
# [7] = control inhibitor, Tyr02, ATP 25 uM
# [8] = control inhibitor, Tyr 02, ATP 50 uM
compound,measurement,setting,value
Nc1ncnc2c1ncn2[C@@H]1O[C@H](COP(=O)(O)OP(=O)(O)OP(=O)(O)O)[C@@H](O)[C@H]1O [ATP],Km,RET; [4],11 µM
same,Km,ABL2 (Arg); [4],30 µM
same,Km,BMX,107 µM
same,Km,"RET-V804E; role: cofactor, peptide substrate Tyr 04, read-out: ATP Km app",50 µM
same,Km,RET-A883F,10 µM
same,Km,EPHB1,61.4 µM
same,Km,RET-V804L,5 µM
same,Km,RET-Y791F,12 µM
same,Km,AURKC (Aurora C),26 µM
same,Km,AURKA (Aurora A),10 µM
same,Km,RET-S891A,8 µM
same,Km,EPHA5; [5],129 µM
same,Km,ABL1 F317L; [4],14 µM
same,Km,BTK; [5],36 µM
same,Km,"TXK; role: cofactor, peptide substrate Tyr 06, read-out: ATP Km app",96 µM
same,Km,ABL1 F317I,15 µM
same,Km,EPHB2; [4],66 µM
same,Km,ROS1; [5],61.4 µM
same,Km,JAK2 [1],31 µM
same,Km,ABL1(wt); [4],12 µM
same,Km,AURKB (Aurora B),81 µM
same,Km,TYK2,23 µM
same,Km,NTRK3 (TRKC),54 µM
same,Km,ABL1 E255K,4.2 µM
same,Km,LCK; [4],45 µM
same,Km,SRC-N1; [4],50 µM
same,Km,EPHA8,123 µM
same,Km,ITK,5.6 µM
same,Km,ABL1 G250E,5.4 µM
same,Km,JAK3,14 µM
same,Km,TNK1,237 µM
same,Km,SRC; [4],50 µM
same,Km,NTRK2 (TRKB),22 µM
same,Km,NTRK1 (TRKA),425 µM
same,Km,EPHA2,65.4 µM
same,Km,ABL1 Y253F,11.8 µM
same,Km,JAK1,87 µM
same,Km,ABL1 T315I,2.8 µM
same,Km,PTK2B (FAK2); [5],5 µM
same,Km,EPHA1; [4],18.5 µM
"Cc1ccc(Nc2ncc3cccc(-c4ccc(F)cc4OC(C)C)c3n2)cc1N [Cmpd51, N1-(8-(4-fluoro-2-isopropoxyphenyl)quinazolin-2-yl)-4-methylbenzene-1,3-diamine hydrochloride]",IL-6 reduction (in words),"IMR90 fibroblasts, IL-6",potent IL-6 reduction at sub-toxic drug levels
same,inhibition at 0.0004 µM,"IMR90 fibroblasts, IL-6; Homo sapiens, IMR-90, 0.4 nM, 24 hours, read-out: IL-6 production reduction",67.5%
same,inhibition at 1.25 µM,"IMR90 fibroblasts, IL-6; Homo sapiens, IMR-90, 1250 nM, 24 hours, read-out: IL-6 production reduction",71.6%
same,IL-6 reduction potency compared with pacritinib,"IMR90 fibroblasts, IL-6",more potent than the control drug pacritinib
same,cell toxicity (in words),IMR90 fibroblasts,without cell toxicity
same,viability,[2]; at 0.4 nM and 1250 nM,100%
"C=CC(=O)Nc1cc(Nc2ncc3cccc(-c4ccc(F)cc4OC(C)C)c3n2)ccc1C [Cmpd53, N-(5-((8-(4-fluoro-2-isopropoxyphenyl)quinazolin-2-yl)amino)-2-methylphenyl)acrylamide]",IL-6 reduction (in words),"IMR90 fibroblasts, IL-6",potent IL-6 reduction at sub-toxic drug levels
same,inhibition at 0.0008 µM,"IMR90 fibroblasts, IL-6; Homo sapiens, IMR-90, 0.8 nM, 24 hours, read-out: IL-6 production reduction",82.2%
same,inhibition at 0.8 µM,"IMR90 fibroblasts, IL-6; Homo sapiens, IMR-90, 800 nM, 24 hours, read-out: IL-6 production reduction",82.9%
same,IL-6 reduction potency compared with pacritinib,"IMR90 fibroblasts, IL-6",more potent than the control drug pacritinib
same,cell toxicity (in words),IMR90 fibroblasts,without cell toxicity
same,viability,[2]; at 0.8 nM and 800 nM,100%
CN[C@@H]1C[C@H]2O[C@@](C)([C@@H]1OC)n1c3ccccc3c3c4c(c5c6ccccc6n2c5c31)C(=O)NC4 [Staurosporine],pIC50,"RET; control inhibitor, Tyr 02, ATP 10 uM",[…]
same,pIC50,RET-V804M,8.99
same,pIC50,"RET-V804E; control inhibitor, Tyr 04, ATP 50 uM",8.64
same,pIC50,ABL1 F317L; [6],6.67
same,pIC50,RET-M918T,8.42
same,pIC50,"PTK2B (FAK2); control inhibitor, Tyr 01, ATP 5 uM",7.92
COc1cc2ncnc(Nc3cccc(Cl)c3)c2cc1OC [Tyrphostin AG1478],pIC50,ABL2 (Arg); [7],6.14
same,pIC50,"BTK; control inhibitor, Tyr 01, ATP 25 uM",5.74
same,pIC50,ABL1(wt); [6],6.49
same,pIC50,LCK; [8],6.20
same,pIC50,SRC-N1; [8],5.98
same,pIC50,SRC; [8],5.78
Cc1nc(Nc2ncc(C(=O)Nc3c(C)cccc3Cl)s2)cc(N2CCN(CCO)CC2)n1 [dasatinib],pIC50,TEC,[…]
same,pIC50,DDR2-T654M,6.86
N#CC[C@H](C1CCCC1)n1cc(-c2ncnc3[nH]ccc23)cn1 [ruxolitinib],JAK2 selectivity,JAK2 [3],not selective inhibitors of JAK2 PK
C[C@@H]1CCN(C(=O)CC#N)C[C@@H]1N(C)c1ncnc2[nH]ccc12 [tofacitinib],JAK2 selectivity,JAK2 [3],not selective inhibitors of JAK2 PK
